Results from patent US11542297B2, “Compositions and methods for treating CNS disorders” (Sage Therapeutics, Inc., priority 2014, dated 2023).

Test system: PTZ-treated mice
Experiment: Acute PTZ method (pentylenetetrazol-induced seizure assay)
Format: in vivo
Details: Mus musculus, lowest dose significantly affecting latency to tonic seizures in PTZ-treated mice, PO, read-out: Anticonvulsive Effect Dose
Experimental: The anticonvulsant effect of test compounds were assessed in a pentylenetetazol-induced seizure assay in mice similar to methods described in Giardina & Gasior (Curr Protoc Pharmacol. 2009). Male CD-1 mice were housed in groups of five under controlled conditions (temperature of 22±2° C. and 12:12 light-dark cycle, lights on at 8:00 am) and water and food were available ad libitum. The mice were housed for 1 week prior to behavioral testing, at which time they weighed 25-35 g. Pentylenetetrazol (PTZ, Sigma) was dissolved in sterile 0.9% saline at a concentration of 12 mg/mL concentration for subcutaneous administration. Test compounds were formulated and administered via oral gavage or intraperitoneal injection at a predetermined time-point (typically 30 or 60 minutes) prior to PTZ injection. […]
Mice were acclimated to the test room for at least 30 min before compound administration. […] Each mouse was continuously observed for 30 min and the following behaviors were recorded by observers blinded to the treatments: 1) latency to clonic convulsions that persist for 3 sec and followed by an absence of righting reflex 2) latency to tonic convulsions, characterized by the rigid extension of all four limbs that exceeded a 90 degree angle with the body 3) latency to death 4) number of clonic and tonic convulsions. […]

Row | Structure (SMILES) | minimal effective dose [mg/kg]
1 | C[C@@]1(O)CC[C@@]2(C)[C@H](CC[C@@H]3[C@@H]2CC[C@]2(C)[C@@H](C(=O)Cn4ccc(C#N)n4)CC[C@@H]32)C1 [Compound 24] | 1 to 5
2 | Cc1nnn(CC(=O)[C@H]2CC[C@H]3[C@@H]4CC[C@@H]5C[C@](C)(O)CC[C@]5(C)[C@H]4CC[C@]23C)n1 [Compound 32] | ≤ 1
